Data published in PubChem BioAssay AID328 (DTP/NCI, 2004).
Several values for one entry are separate records, joined by “and”; a condition that tells them apart may be missing. Equal entries are not always repeated. Toxic doses and inconclusive results are not listed.

System: BDF1 mice, P388 leukemia ip, median survival T/C
Experiment: NCI In Vivo Anticancer Drug Screen. Data for tumor model P388 Leukemia (intraperitoneal) in B6D2F1 (BDF1) mice
Settings: endpoint: median survival time, higher = longer survival
In short: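 Each value expresses how treatment altered survival: treated-mouse outcome over vehicle-mouse outcome, both groups bearing the transplanted tumour.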

[1] = dose: 0.19 mg/kg/injection, schedule: Q01DX009 (ip), vehicle: saline
[2] = dose: 50.0 mg/kg/injection, schedule: Q01DX009 (ip), vehicle: saline
[3] = dose: 100.0 mg/kg/injection, schedule: Q04DX003 (ip), vehicle: saline
[4] = dose: 50.0 mg/kg/injection, schedule: Q01DX009 (ip), vehicle: saline with Tween-80
[5] = dose: 100.0 mg/kg/injection, schedule: Q01DX009 (ip), vehicle: saline with Tween-80
[6] = dose: 200.0 mg/kg/injection, schedule: Q01DX009 (ip), vehicle: saline with Tween-80
[7] = dose: 400.0 mg/kg/injection, schedule: Q01DX009 (ip), vehicle: saline with Tween-80
[8] = dose: 100.0 mg/kg/injection, schedule: Q04DX003 (ip), vehicle: saline with Tween-80
[9] = dose: 200.0 mg/kg/injection, schedule: Q04DX003 (ip), vehicle: saline with Tween-80
[10] = dose: 400.0 mg/kg/injection, schedule: Q04DX003 (ip), vehicle: saline with Tween-80
[11] = dose: 100.0 mg/kg/injection, schedule: Q01DX001 (ip), vehicle: Klucel (hydroxypropylcellulose) (HPC)
[12] = dose: 100.0 mg/kg/injection, schedule: Q04DX003 (ip), vehicle: Klucel (hydroxypropylcellulose) (HPC)
[13] = dose: 200.0 mg/kg/injection, schedule: Q01DX001 (ip), vehicle: Klucel (hydroxypropylcellulose) (HPC)
[14] = dose: 200.0 mg/kg/injection, schedule: Q04DX003 (ip), vehicle: Klucel (hydroxypropylcellulose) (HPC)
[15] = dose: 400.0 mg/kg/injection, schedule: Q01DX001 (ip), vehicle: Klucel (hydroxypropylcellulose) (HPC)
[16] = dose: 400.0 mg/kg/injection, schedule: Q04DX003 (ip), vehicle: Klucel (hydroxypropylcellulose) (HPC)
[17] = dose: 50.0 mg/kg/injection, schedule: Q04DX003 (ip), vehicle: saline with Tween-80

## CC1NC(=O)C2Cc3ccc(O)c(c3)Oc3ccc(cc3)C(O)C(C(=O)N2C)N(C)C(=O)C(C)NC(=O)C(Cc2ccc(O)cc2)N(C)C(=O)C(C)NC1=O (configuration not stated)
dose: 1.0 mg/kg/injection, schedule: Q01DX009 (ip), vehicle: saline with Tween-80
  T/C: 98 % of control
dose: 2.0 mg/kg/injection, schedule: Q01DX009 (ip), vehicle: saline with Tween-80
  T/C: 94 % of control
dose: 4.0 mg/kg/injection, schedule: Q01DX009 (ip), vehicle: saline with Tween-80
  T/C: 107 % of control
dose: 8.0 mg/kg/injection, schedule: Q01DX009 (ip), vehicle: saline with Tween-80
  T/C: 110 % of control
dose: 16.0 mg/kg/injection, schedule: Q01DX009 (ip), vehicle: saline with Tween-80
  T/C: 101 % of control

## O=C(O)C1CCSS1 (configuration not stated)
[1]
  T/C: 100 % of control
dose: 0.39 mg/kg/injection, schedule: Q01DX009 (ip), vehicle: saline
  T/C: 91 % of control
dose: 0.78 mg/kg/injection, schedule: Q01DX009 (ip), vehicle: saline
  T/C: 90 % of control and 117 % of control
dose: 1.56 mg/kg/injection, schedule: Q01DX009 (ip), vehicle: saline
  T/C: 96 % of control and 99 % of control
dose: 3.12 mg/kg/injection, schedule: Q01DX009 (ip), vehicle: saline
  T/C: 94 % of control
dose: 6.25 mg/kg/injection, schedule: Q01DX009 (ip), vehicle: saline
  T/C: 94 % of control
dose: 12.5 mg/kg/injection, schedule: Q01DX009 (ip), vehicle: saline
  T/C: 102 % of control and 106 % of control and 108 % of control
[2]
  T/C: 87 % of control and 89 % of control
dose: 50.0 mg/kg/injection, schedule: Q04DX003 (ip), vehicle: saline
  T/C: 103 % of control
[3]
  T/C: 101 % of control

## Cc1ccc(C(=O)O)c(=O)[nH]1
[4]
  T/C: 98 % of control
[5]
  T/C: 95 % of control
[6]
  T/C: 100 % of control
[7]
  T/C: 94 % of control

## O=[N+]([O-])c1ccc(/C=C/c2cccc(/C=C/c3ccc([N+](=O)[O-])cc3)[n+]2[O-])cc1
dose: 50.0 mg/kg/injection, schedule: Q01DX005 (ip), vehicle: saline with Tween-80
  T/C: 96 % of control
dose: 100.0 mg/kg/injection, schedule: Q01DX005 (ip), vehicle: saline with Tween-80
  T/C: 94 % of control
dose: 200.0 mg/kg/injection, schedule: Q01DX005 (ip), vehicle: saline with Tween-80
  T/C: 93 % of control

## Cc1ccc(C(=O)CCCCCCCCC(=O)c2ccc(C)cc2)cc1
[8]
  T/C: 100 % of control
[9]
  T/C: 90 % of control
[10]
  T/C: 100 % of control

## CCCCS(=N)(=O)CC[C@H](N)C(=O)O (some centres not stated)
dose: 50.0 mg/kg/injection, schedule: Q01DX005 (ip), vehicle: saline
  T/C: 96 % of control
dose: 100.0 mg/kg/injection, schedule: Q01DX005 (ip), vehicle: saline
  T/C: 96 % of control
dose: 200.0 mg/kg/injection, schedule: Q01DX005 (ip), vehicle: saline
  T/C: 91 % of control
dose: 400.0 mg/kg/injection, schedule: Q01DX005 (ip), vehicle: saline
  T/C: 91 % of control

## COP(=O)(O)/C(C)=N/NS(=O)(=O)c1ccc(C)cc1
dose: 25.0 mg/kg/injection, schedule: Q01DX009 (ip), vehicle: other
  T/C: 100 % of control
dose: 50.0 mg/kg/injection, schedule: Q01DX009 (ip), vehicle: other
  T/C: 103 % of control
dose: 100.0 mg/kg/injection, schedule: Q01DX009 (ip), vehicle: other
  T/C: 100 % of control
dose: 200.0 mg/kg/injection, schedule: Q01DX009 (ip), vehicle: other
  T/C: 100 % of control
dose: 400.0 mg/kg/injection, schedule: Q01DX009 (ip), vehicle: other
  T/C: 102 % of control

## Cc1c(CNc2ccc(C(=O)NC(CC(=O)O)CC(=O)O)cc2)ccc2nc(N)nc(N)c12
[1]
  T/C: 165 % of control
dose: 0.37 mg/kg/injection, schedule: Q01DX009 (ip), vehicle: saline
  T/C: 215 % of control
dose: 0.75 mg/kg/injection, schedule: Q01DX009 (ip), vehicle: saline
  T/C: 100 % of control
dose: 1.5 mg/kg/injection, schedule: Q01DX009 (ip), vehicle: saline
  T/C: 95 % of control
dose: 2.0 mg/kg/injection, schedule: Q01DX009 (ip), vehicle: saline
  T/C: 110 % of control

## CSCc1cccc(CO)c1
[5]
  T/C: 110 % of control
[6]
  T/C: 100 % of control
[7]
  T/C: 105 % of control

## O=C(O)CC1SC(=S)N(c2ccccc2)C1=O (configuration not stated)
[4]
  T/C: 101 % of control
[5]
  T/C: 105 % of control

## COC1CC(N=[N+]=[N-])C(O)C(C)O1 (configuration not stated)
[8]
  T/C: 118 % of control and 101 % of control
[9]
  T/C: 110 % of control and 101 % of control
[10]
  T/C: 118 % of control and 93 % of control
dose: 500.0 mg/kg/injection, schedule: Q04DX003 (ip), vehicle: saline with Tween-80
  T/C: 109 % of control

## Oc1ccc(C2N(c3ccccc3)CCN2c2ccccc2)cc1
[8]
  T/C: 110 % of control
[9]
  T/C: 86 % of control

## CCCCCCCCCCCC[N+](CC)(CC)CC(=O)O
dose: 33.0 mg/kg/injection, schedule: Q01DX009 (ip), vehicle: saline
  T/C: 113 % of control
[2]
  T/C: 113 % of control

## CC(C)=CC(=O)OCC1CC[N+](C)([O-])C1 (configuration not stated)
dose: 100.0 mg/kg/injection, schedule: Q01DX009 (ip), vehicle: saline
  T/C: 100 % of control
dose: 200.0 mg/kg/injection, schedule: Q01DX001 (ip), vehicle: saline
  T/C: 95 % of control
dose: 200.0 mg/kg/injection, schedule: Q01DX009 (ip), vehicle: saline
  T/C: 91 % of control
dose: 400.0 mg/kg/injection, schedule: Q01DX009 (ip), vehicle: saline
  T/C: 103 % of control
dose: 800.0 mg/kg/injection, schedule: Q01DX001 (ip), vehicle: saline
  T/C: 91 % of control
dose: 800.0 mg/kg/injection, schedule: Q01DX009 (ip), vehicle: saline
  T/C: 103 % of control

## COc1ccc(N2CSC(=S)N(c3ccc(OC)cc3)C2)cc1
[11]
  T/C: 100 % of control
[12]
  T/C: 95 % of control
[3]
  T/C: 87 % of control
[13]
  T/C: 87 % of control
[14]
  T/C: 91 % of control
[15]
  T/C: 95 % of control
[16]
  T/C: 104 % of control
dose: 400.0 mg/kg/injection, schedule: Q04DX003 (ip), vehicle: saline
  T/C: 100 % of control

## CCN(CC)CCC1(C#N)Cc2ccccc2N(CC)c2ccccc21 (configuration not stated)
[5]
  T/C: 107 % of control
[6]
  T/C: 113 % of control

## C[C@]12CCCC[C@@H]1CC[C@@H]1[C@@H]2[C@@H](O)C[C@]2(C)[C@@H](O)CC[C@@H]12
[4]
  T/C: 95 % of control and 100 % of control
[17]
  T/C: 100 % of control
dose: 66.0 mg/kg/injection, schedule: Q04DX003 (ip), vehicle: saline with Tween-80
  T/C: 95 % of control
[5]
  T/C: 95 % of control and 100 % of control
[8]
  T/C: 122 % of control
dose: 150.0 mg/kg/injection, schedule: Q04DX003 (ip), vehicle: saline with Tween-80
  T/C: 90 % of control
[6]
  T/C: 90 % of control and 100 % of control
[9]
  T/C: 100 % of control

## COc1ccc(C(=O)/C(Br)=C/C(=O)O)cc1
dose: 6.3 mg/kg/injection, schedule: Q01DX009 (ip), vehicle: saline
  T/C: 106 % of control
dose: 12.5 mg/kg/injection, schedule: Q01DX009 (ip), vehicle: water
  T/C: 120 % of control
dose: 25.0 mg/kg/injection, schedule: Q01DX009 (ip), vehicle: water
  T/C: 150 % of control
dose: 25.0 mg/kg/injection, schedule: Q04DX002 (ip), vehicle: saline
  T/C: 108 % of control and 109 % of control
dose: 50.0 mg/kg/injection, schedule: Q01DX009 (ip), vehicle: water
  T/C: 100 % of control
dose: 50.0 mg/kg/injection, schedule: Q04DX002 (ip), vehicle: saline
  T/C: 116 % of control and 118 % of control
dose: 100.0 mg/kg/injection, schedule: Q04DX002 (ip), vehicle: saline
  T/C: 150 % of control

## O=C(O)c1ccc(O)c(=O)cc1
dose: 12.5 mg/kg/injection, schedule: Q01DX001 (ip), vehicle: saline with Tween-80
  T/C: 102 % of control

## OCC1OC(c2ccc(OCc3ccccc3)cc2OCc2ccccc2)C(O)C1O (configuration not stated)
[4]
  T/C: 105 % of control
[5]
  T/C: 92 % of control
[6]
  T/C: 92 % of control

## Cc1noc(/N=C/c2ccccc2)c1C
[11]
  T/C: 108 % of control
[12]
  T/C: 95 % of control
[13]
  T/C: 104 % of control
[14]
  T/C: 100 % of control and 104 % of control
[15]
  T/C: 112 % of control
[16]
  T/C: 91 % of control and 100 % of control

## CCCN(CCC)CCC#N
[17]
  T/C: 104 % of control
[8]
  T/C: 100 % of control
[9]
  T/C: 90 % of control

## O=C1Nc2ccccc2S/C1=C\c1ccc(C(F)(F)F)cc1
[4]
  T/C: 115 % of control
[5]
  T/C: 100 % of control
[6]
  T/C: 110 % of control

## CCOC1(OCC)OC(c2ccccc2)=C(C#N)C(/C=C\c2ccccc2)C1(OCC)OCC (configuration not stated)
[4]
  T/C: 92 % of control
[5]
  T/C: 92 % of control
[6]
  T/C: 90 % of control
